This is an account of results in patent US20090117545A1 (priority 2004, published 2009).

The subject of test [1] is VC II RNA (type II glycine aptamer alone). The experiment in a line: In-line probing of VC II RNA. The format is binding, Vibrio cholerae. Conditions: for EC50: in-line probing, read-out: concentration of ligand needed to cause half-maximal structure modulation of VC II.
Test [2] deals with VC I-II RNA (tandem type I and type II glycine aptamers, VC1422 gene). Kind of test: In-line probing of VC I-II RNA. The format is binding, Vibrio cholerae. The settings on record: for structural modulation (change in pattern of spontaneous cleavage) of VC I-II: ligand at 1 mM.
Procedure: In-line probing of the VC I-II construct (FIG. 1B), derived from the VC1422 gene from V. cholerae, was carried out with trace amounts of 5′ ^32P-labeled RNA using methods that are similar to those described elsewhere in Nahvi et al., Chem. Biol. 9, 1043 (2002), and Winkler et al., Nature 419, 952 (2002). RNAs were prepared by transcription from the appropriate DNA template carrying a T7 RNA polymerase promoter, which was generated by PCR from V. cholerae (C6706-st2) genomic DNA using the primers 5′-[sequence]-[sequence] […] The underlined nucleotides identify sequences corresponding to the promoter for T7 RNA polymerase.
In a typical in line probing assay, ˜15 nM of labeled RNA is incubated in buffer (20 mM MgCl2, 50 mM Tris, pH 8.3 at 25° C., 100 mM KCl) in the absence or presence of ligand for 40 hrs at 23° C. After incubation, spontaneously cleaved products were separated using 10% denaturing PAGE and were visualized and quantitated using a PhosphorImager (Molecular Dynamics).
Lowercase letters in FIG. 1B and FIG. 8A identify nucleotides that were added to the construct to permit efficient transcription in vitro using RiboMAX transcription (Promega). For the data presented in FIG. 5, fraction bound equals 1 minus the normalized fraction cleaved in the in-line probing assay at U207-C208 for VC II and U74 for VC I-II.
Curves for the absence of cooperativity (blue curve, n=1) and presence of perfect cooperativity at two binding sites (orange curve, n=2) are depicted. […] The fraction of RNA cleaved at four regions in both RNA constructs was determined by in-line probing. The amount of cleavage was normalized to range from 0 to 1 using the minimum and maximum amounts cleaved for each region.
The subject of another test is VC II RNA. Kind of test: Equilibrium dialysis with 3H-glycine, VC II RNA. The format is binding, Vibrio cholerae. The settings on record: for restoration of equal distribution of 3H-glycine by unlabeled competitor: VC II 100 μM, excess (1 mM) unlabeled competitor after preequilibration. The method, then: (§1) Methods used for equilibrium dialysis were similar to those described in Mandal et al., Cell 113, 577 (2003). Specifically, equilibrium dialysis assays were conducted using a DispoEquilibrium Dialyzer (Harvard Biosciences), wherein chamber a and b are separated by a 5,000 MWCO membrane. […] Chamber b contained VC II or VC I-II RNA transcripts at 100 μM concentration suspended in the same buffer. Equilibrations were allowed to proceed for 10 hrs at 23° C. Subsequently 5 μL of sample was drawn from each chamber and quantitated by liquid scintillation counting. […] For both RNAs, experiments i-iii (FIG. 4B) were conducted by first pre-equilibrating the chambers (left data point), and then adding unlabeled competitor as indicated followed by a second equilibration (right data point). RNAs were prepared by in vitro transcription using the appropriate PCR DNA templates as described above.
(§2) Other notations are the same as those described for FIG. 1C.

Another test has as its system VC I-II RNA. Kind of test: Equilibrium dialysis with 3H-glycine, VC I-II RNA. The format is binding, Vibrio cholerae. The settings on record: for restoration of equal distribution of 3H-glycine by unlabeled competitor: VC I-II 100 μM, excess (1 mM) unlabeled competitor after preequilibration. As for the experimental part:
as §1, §2

In test [3] the test system is wild-type gcvT IGR fused to β-galactosidase reporter gene. Conditions: amino acid present in growth medium.
Source text: Specifically, nucleotides −429 to +7 relative to the B. subtilis gcvT translation start site of the first open reading frame of the gcvT operon was PCR amplified as an EcoRI-BamHI fragment from B. subtilis strain 1A2 (Bacillus Genetic Stock Center, Columbus, Ohio). The wild type construct was cloned into pDG1661 at a site directly upstream of the lacZ reporter gene. […] The IGR used for this study (FIG. 8A) differed in sequence at three nucleotides (151-153, TTT to AAA) relative to the genomic database. Plasmids generated were integrated into the amyE locus of strain 1A2. Transformants were selected for chloramphenicol (5 μg/ml) resistance and screened for sensitivity to spectinomycin (100 μg/ml). Cells were grown in defined media (0.5% w/v glucose, 2 g/L (NH4)2SO4, 25 g/L K2HPO4-3H2O, 6 g/L KH2PO4, 1 g/L sodium citrate, 0.2 g/L MgSO4-7H2O, 2 μM MnCl2, 15 mM glutamate, and 5 mg/L chloramphenicol) to an A595 of 0.1, pelleted, and resuspended in minimal media supplemented with 500 μg/L of amino acid as indicated for each experiment. Cultures were incubated for an additional 3 hr and β-galactosidase assays were performed as described previously (Miller, A Short Course in Bacterial Genetics (Cold Spring Harbor Laboratory Press, Cold Spring Harbor, N.Y., 1992)). Miller units plotted are the average of six values (three assays conducted in duplicate).
In test [4] the test system is gcvT 5'-UTR glycine riboswitch. The experiment in a line: Single-round in vitro transcription termination assay. Conditions: for effect on production of full-length RNA transcripts: single-round in vitro transcription. The format is biochemical, Bacillus subtilis. As for the experimental part:
Transcription termination assays were conducted as described previously (Sudarsan et al., Genes Dev. 17, 2688 (2003); Landick et al., Methods Enzymol. 274, 334 (1996)).
Transcription assays were performed using a method adapted from that described earlier (Edelstein, Annu. Rev. Biochem. 44, 209 (1975)). […] DNA templates encompassing nucleotides −406 to +7 relative to the translation start site for the gcvT operon in B. subtilis were used. Transcription assays included 20 mM Tris-HCl (pH 8.0 at 23° C.), 20 mM NaCl, 14 mM MgCl2, 0.1 mM EDTA, 0.01 mg/mL BSA, and 1% v/v glycerol. Each reaction (10 μL) contained 1 pmole of template DNA and 9 U E. coli RNA polymerase (Epicenter) and was conducted with the type and concentration of target molecule as indicated for each experiment. Transcription was initiated by the addition of the dinucleotide ApA (135 μM), GTP and UTP (2.5 μM each), ATP (1 μM), and [α-^32P]-ATP (4_Ci). After 5 min incubation at 37° C., 50 μM of each NTP was added along with 0.1 mg/mL heparin to prevent re-initiation by RNA polymerase. Transcription products generated after a 10 minute incubation were separated by denaturing 6% PAGE and visualized by using a PhosphorImager. […] Single-round transcription assays were conducted as described for FIG. 9A. […] Single-round transcription assays were conducted as described for FIG. 9A with 50 μM rNTPs.

For test [5], the system named is variant VC I-II construct wherein aptamer II has been mutated. The settings on record: relative to wild-type VC I-II.

SMILES strings stand for the structures. “And” between values parts separate entries of the source, which are not always exact repeats. Equal entries are not always repeated. “Also recorded” adds a separate entry of the source.

Consider `CC(C)(C)OC(=O)CN` [glycine tertiary butyl ester, glycine tert-butyl ester], for which the EC50 in test [1] was around 1000 µM. For the same molecule, the “structural modulation (change in pattern of spontaneous cleavage) of VC I-II” value in test [2] was “measurable structural modulation”.

As to `C[C@H](N)C(=O)O` [L-alanine], the “restoration of equal distribution of 3H-glycine by unlabeled competitor” value (shortened to “restoration”) in the test with VC II RNA and in the test with VC I-II RNA was “failed to restore equal distribution” throughout. For the same molecule, in test [2], the “structural modulation (change in pattern of spontaneous cleavage) of VC I-II” value was “did not induce change”. For the same molecule, in test [3], the “expression of β-galactosidase reporter” value is given as “low amount of gene expression”. For the same molecule, the “effect on production of full-length RNA transcripts” value (“effect on production” for short) in test [4] is reported as “failed to trigger an increase”.

Take `COC(=O)CN` [glycine methyl ester]: the EC50 in test [1] was around 100 µM. Also, the “structural modulation (change in pattern of spontaneous cleavage) of VC I-II” value in test [2] is listed as “measurable structural modulation”.

`N[C@@H](CO)C(=O)O` [L-serine]: the “restoration” value with VC II RNA and with VC I-II RNA was “failed to restore equal distribution” each time. The “effect on production” value in test [4] is given as “rejected; also recorded: failed to trigger an increase”.

For the molecule `NCC(=O)NO` [glycine hydroxamate], the EC50 in test [1] was around 1000 µM.

`NCC(=O)O` [glycine]: the “restoration” value in the test on VC II RNA and in the test with VC I-II RNA was “restored an equal distribution” throughout. In the test on VC II RNA (three equivalents of glycine versus one equivalent of VC II RNA (100 μM), 1 expected), the “equivalents of glycine bound by RNA” value is on record as 0.8 equivalents. Further, in test [5], the “loss of affinity in the unaltered aptamer I” value is “more than 1,000 fold”. In test [1] (VC II, best fit of four regions), the Hill constant n is 0.97±0.04. The Kd in test [1] (VC II, best fit of four regions, read-out: constant K of Hill equation) is 24 ± 12 µM; in test [2] (VC I-II, best fit of four regions, read-out: constant K of Hill equation), 40 ± 1 µM. Further, the EC50 in test [1] is around 10 µM. The “increase in glycine concentration for change from 10% to 90% ligand-bound RNA” value in test [1] (single aptamer RNA, printed as VC I RNA) is 100 fold; in test [2] (VC I-II), 10 fold. For the same molecule, the “increase in the amount of glycine bound by RNA” value with VC I-II RNA (one equivalent of VC I-II RNA (two aptamer equivalents) versus VC II, 2 expected) was 1.6 fold. In addition, in test [2] (VC I-II, best fit of four regions, maximum for two sites is 2), the Hill coefficient n is 1.64 and 1.64±0.07. In test [2], the “structural modulation (change in pattern of spontaneous cleavage) of VC I-II” value was “caused changes in the pattern of spontaneous cleavage”. Also, the “glycine concentration at which full-length transcripts are favored” value in test [4] (added to transcription mixture) is above 10 µM. Further, the “effect on production” value in test [4] is reported as “substantial increase in the amount of full-length RNA transcript”. For the same molecule, the “Hill coefficient of best-fit curve to transcription data” value in test [4] (yield of full-length transcripts versus glycine) was 1.4.
